Measured values from patent publication EP4721732A1, “PHARMACEUTICAL COMPOSITION CONTAINING CRISDESALAZINE WITH IMPROVED STABILITY AND DISSOLUTION RATE” (priority 2023, dated 2024).
Converted amounts (≈) assume the structure as drawn. Where two headings read alike, the source gives them in different places.

Assays:
[1] = pH-dependent equilibrium solubility; format: physicochemical; conditions: for Equilibrium Solubility: BLOD = below limit of detection; for solubility thermodynamic at 12 h / solubility thermodynamic at 24 h: purified water, thermodynamic from solid
Description: First, the inventors of the present invention measured the pH-dependent equilibrium solubility of crisdesalazine (2-hydroxy-5-[2-(4-trifluoromethylphenyl)ethylamino]benzoic acid), and the results of the solubility at 12 hours and 24 hours were as shown in Table 1 and Figure 1 below. […]

[2] = Compatibility evaluation of crisdesalazine with excipients; format: physicochemical
Text: One embodiment of the present invention provides a pharmaceutical composition substantially free of lactose. The inventors conducted "compatibility" evaluation experiments between crisdesalazine and various excipients.
In other words, the long-term stability of crisdesalazine and lactose was difficult to predict based solely on short-term compatibility evaluation tests.
However, when compressed to a target hardness of 7-9 kPa, the target hardness was not achieved. The appearance of the tablet changed to a bluish gray color during the short period between mixing and compression.

Equilibrium Solubility ([1]; pH 3, 12 hours): BLOD
Equilibrium Solubility ([1]; pH 3, 24 hours): BLOD
Equilibrium Solubility ([1]; pH 4, 12 hours): BLOD
solubility thermodynamic at 12 h ([1]; pH 1, simulated gastric fluid, pH 1, 12 hours, read-out: Equilibrium Solubility): 16.4 µg/mL (≈ 50.4 µM)
solubility thermodynamic at 24 h ([1]; pH 1, simulated gastric fluid, pH 1, 24 hours, read-out: Equilibrium Solubility): 15.7 µg/mL (≈ 48.3 µM)
solubility thermodynamic at 12 h ([1]; pH 2, simulated gastric fluid, pH 2, 12 hours, read-out: Equilibrium Solubility): 2.6 µg/mL (≈ 7.99 µM)
solubility thermodynamic at 24 h ([1]; pH 2, simulated gastric fluid, pH 2, 24 hours, read-out: Equilibrium Solubility): 1.7 µg/mL (≈ 5.23 µM)
solubility thermodynamic at 24 h ([1]; pH 4, aqueous buffer, pH 4, 24 hours, read-out: Equilibrium Solubility): 2.2 µg/mL (≈ 6.76 µM)
solubility thermodynamic at 12 h ([1]; pH 5, aqueous buffer, pH 5, 12 hours, read-out: Equilibrium Solubility): 0.7 µg/mL (≈ 2.15 µM)
solubility thermodynamic at 24 h ([1]; pH 5, aqueous buffer, pH 5, 24 hours, read-out: Equilibrium Solubility): 5.9 µg/mL (≈ 18.1 µM)
solubility thermodynamic at 12 h ([1]; pH 6, aqueous buffer, pH 6, 12 hours, read-out: Equilibrium Solubility): 6.4 µg/mL (≈ 19.7 µM)
solubility thermodynamic at 24 h ([1]; pH 6, aqueous buffer, pH 6, 24 hours, read-out: Equilibrium Solubility): 11.5 µg/mL (≈ 35.4 µM)
solubility thermodynamic at 12 h ([1]; pH 7, aqueous buffer, pH 7, 12 hours, read-out: Equilibrium Solubility): 38.2 µg/mL (≈ 117 µM)
solubility thermodynamic at 24 h ([1]; pH 7, aqueous buffer, pH 7, 24 hours, read-out: Equilibrium Solubility): 39.7 µg/mL (≈ 122 µM)
solubility thermodynamic at 12 h ([1]; pH 7, aqueous buffer, pH 7 or lower, 12 hours, read-out: equilibrium solubility in purified water): ≤ 38.2 µg/mL
solubility thermodynamic at 24 h ([1]; pH 7, aqueous buffer, pH 7 or lower, 24 hours, read-out: equilibrium solubility in purified water): ≤ 39.7 µg/mL
solubility thermodynamic at 12 h ([1]; pH 8, aqueous buffer, pH 8, 12 hours, read-out: Equilibrium Solubility): 254 µg/mL (≈ 781 µM)
solubility thermodynamic at 24 h ([1]; pH 8, aqueous buffer, pH 8, 24 hours, read-out: Equilibrium Solubility): 252 µg/mL (≈ 773 µM)
solubility thermodynamic at 12 h ([1]; pH 9, aqueous buffer, pH 9, 12 hours, read-out: Equilibrium Solubility): 1210 µg/mL (≈ 3720 µM)
solubility thermodynamic at 24 h ([1]; pH 9, aqueous buffer, pH 9, 24 hours, read-out: Equilibrium Solubility): 1230 µg/mL (≈ 3780 µM)
solubility thermodynamic at 12 h ([1]; pH 10, aqueous buffer, pH 10, 12 hours, read-out: Equilibrium Solubility): 685 µg/mL (≈ 2110 µM)
solubility thermodynamic at 24 h ([1]; pH 10, aqueous buffer, pH 10, 24 hours, read-out: Equilibrium Solubility): 678 µg/mL (≈ 2080 µM)
solubility thermodynamic at 12 h ([1]; pH 11, aqueous buffer, pH 11, 12 hours, read-out: Equilibrium Solubility): 662 µg/mL (≈ 2040 µM)
solubility thermodynamic at 24 h ([1]; pH 11, aqueous buffer, pH 11, 24 hours, read-out: Equilibrium Solubility): 718 µg/mL (≈ 2210 µM)
solubility thermodynamic at 12 h ([1]; pH 12, aqueous buffer, pH 12, 12 hours, read-out: Equilibrium Solubility): 1220 µg/mL (≈ 3770 µM)
solubility thermodynamic at 24 h ([1]; pH 12, aqueous buffer, pH 12, 24 hours, read-out: Equilibrium Solubility): 1220 µg/mL (≈ 3760 µM)
compatibility with lactose ([2]; 13-week compatibility study, only minor powder coagulation, minimal changes in impurities): judged to be compatible
compatibility with excipients ([2]; with calcium phosphate dibasic, hydroxypropyl methylcellulose (HPMC), meglumine, magnesium oxide (MgO)): poor compatibility
Structure (SMILES): O=C(O)c1cc(NCCc2ccc(C(F)(F)F)cc2)ccc1O [crisdesalazine, 2-hydroxy-5-[2-(4-trifluoromethylphenyl)ethylamino]benzoic acid]
